The test system of one assay is HCT 116 cell line. In words: Inhibition of Cell Growth (MTT tetrazolium salt assay). It is filed as cell-based. The conditions noted are these: Homo sapiens. An outline of the steps: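 HCT 116 cells in McCoy's 5A were dosed 4 h after plating, in 0.5% (v/v) DMSO, then held 4–6 days at 37 °C, 5% CO2. MTT at 0.2 mg/mL final for 4 h; DMSO-solubilized formazan read at 540 nm. IC50 taken from the linear part of a semi-log plot versus DMSO-only controls.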

The target in another assay is T1, VEGF-R2 (Homo sapiens, UniProt P35968, DEL940-989/E990V).
T1 construct: VEGF-R2Δ50 contains residues 806–939 and 990–1171; made in house; host or cells: baculovirus/insect cells
In words: VEGF-R2 Assay (coupled spectrophotometric FLVK-P / ELISA). It is filed as biochemical. The conditions noted are these: for inhibition at 1 µM: read-out: VEGF % Inhib. at 1 μM. From the text: VEGF-R2 Construct for Assay
This construct determines the ability of a test compound to inhibit tyrosine kinase activity. A construct (VEGF-R2Δ50) of the cytosolic domain of human vascular endothelial growth factor receptor 2 (VEGF-R2) lacking the 50 central residues of the 68 residues of the kinase insert domain was expressed in a baculovirus/insect cell system. Of the 1356 residues of full-length VEGF-R2, VEGF-R2Δ50 contains residues 806–939 and 990–1171, and also one point mutation (E990V) within the kinase insert domain relative to wild-type VEGF-R2. […] See Parast et al., Biochemistry, 37,16788–16801 (1998).
Coupled Spectrophotometric (FLVK-P) Assay
The production of ADP from ATP that accompanies phosphoryl transfer was coupled to oxidation of NADH using phosphoenolpyruvate (PEP) and a system having pyruvate kinase (PK) and lactic dehydrogenase (LDH). The oxidation of NADH was monitored by following the decrease of absorbance at 340 nm (e340=6.22 cm^1 mM^−1) using a Beckman DU 650 spectrophotometer. Assay conditions for phosphorylated VEGF-R2A50 (indicated as FLVK-P in the tables below) were the following: 1 mM PEP; 250 μM NADH; 50 units of LDH/mL; 20 units of PK/mL; 5 mM DTT; 5.1 mM poly(E4Y1); 1 mM ATP; and 25 mM MgCl2 in 200 mM Hepes, pH 7.5. Assay conditions for unphosphorylated VEGF-R2A50 (indicated as FLVK in the tables) were the following: 1 mM PEP; 250 μM NADH; 50 units of LDH/mL; 20 units of PK/mL; 5 mM DTT; 20 mM poly(E4Y1); 3 mM ATP; and 60 mM MgCl2 and 2 mM MnCl2 in 200 mM Hepes, pH 7.5. Assays were initiated with 5 to 40 nM of enzyme. Ki values were determined by measuring enzyme activity in the presence of varying concentrations of test compounds. The data were analyzed using Enzyme Kinetic and Kaleidagraph software.
Formation of phosphogastrin was monitored using biotinylated gastrin peptide (1–17) as substrate. Biotinylated phosphogastrin was immobilized using streptavidin coated 96-well microtiter plates followed by detection using anti-phosphotyrosine-antibody conjugated to horseradish peroxidase. The activity of horseradish peroxidase was monitored using 2,2′-azino-di-[3-ethylbenzathiazoline sulfonate(6)] diammonium salt (ABTS). Typical assay solutions contained: 2 μM biotinylated gastrin peptide; 5 mM DTT; 20 μM ATP; 26 mM MgCl2; and 2 mM MnCl2 in 200 mM Hepes, pH 7.5. The assay was initiated with 0.8 nM of phosphorylated VEGF-R2Δ50. Horseradish peroxidase activity was assayed using ABTS, 10 mM. The horseradish peroxidase reaction was quenched by addition of acid (H2SO4), followed by absorbance reading at 405 nm. Ki values were determined by measuring enzyme activity in the presence of varying concentrations of test compounds. The data were analyzed using Enzyme Kinetic and Kaleidagraph software.
On the technique in general: ELISA stands for enzyme-linked immunosorbent assay.

[1] abbreviates: HCT 116, MTT, 50% inhibition of growth, read-out: HCT 116 IC50.
The mark [2] stands for this setting: HCT 116, MTT, IC90, read-out: HCT 116 IC90.
The mark [3] stands for this setting: HCT-116, read-out: HCT 116 IC50 (uM).
Setting [4] is: HCT-116, read-out: HCT 116 IC90 (uM).

Structures are written as SMILES. Where two headings read alike, the source gives them in different places.

T1 sequence (P35968 with tags, fused parts or gaps DEL940-989/E990V limits assumed): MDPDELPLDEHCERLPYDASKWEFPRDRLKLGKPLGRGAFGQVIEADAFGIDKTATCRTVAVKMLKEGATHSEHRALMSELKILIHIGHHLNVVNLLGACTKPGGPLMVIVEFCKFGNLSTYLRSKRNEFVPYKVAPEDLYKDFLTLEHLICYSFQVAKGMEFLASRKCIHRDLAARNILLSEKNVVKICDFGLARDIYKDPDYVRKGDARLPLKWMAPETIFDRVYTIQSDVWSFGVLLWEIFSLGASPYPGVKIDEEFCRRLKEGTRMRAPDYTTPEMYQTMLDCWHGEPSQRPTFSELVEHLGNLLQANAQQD

Take `C(=C\c1n[nH]c2ccc(-c3cncc4ccccc34)cc12)/c1ccccc1` [Example 16]: the IC50 – broadly, the point on the concentration scale where inhibition reaches its midpoint – with HCT 116 cell line (setting [1]) came out at 3 µM. Also, in the assay with HCT 116 cell line (setting [2]), the IC90 (usually the point of the concentration-response curve where the effect stands at 90%) is 5 µM. The inhibition at 1 µM on VEGF-R2 amounted to 36%.
For `OCc1cccc2[nH]c(-c3n[nH]c4ccc(-c5cncc6ccccc56)cc34)nc12` [Example 29, [2-(5-Isoquinolin-4-yl-1H-indazol-3-yl)-1H-benzoimidazol-4-yl]-methanol], in the assay on HCT 116 cell line (setting [1]), the IC50 worked out at 0.18 µM. Moreover, in the assay with HCT 116 cell line (setting [2]), the IC90 stood at 0.8 µM. Also, the inhibition at 1 µM at VEGF-R2 came to 6%.
Regarding `CN(C)Cc1cccc2[nH]c(-c3n[nH]c4ccc(-c5cncc6ccccc56)cc34)nc12` [Example 31, [2-(5-Isoquinolin-4-yl-1H-indazol-3-yl)-1H-benzoimidazol-4-ylmethyl]-dimethyl-amine], at VEGF-R2, the Ki (commonly a measure of affinity in units of concentration, obtained from inhibition or displacement) turned out to be 2900 nM and the inhibition at 1 µM worked out at 17%.
With `CCN(CC)Cc1cccc2[nH]c(-c3n[nH]c4ccc(-c5cncc6ccccc56)cc34)nc12` [Example 36, Diethyl-[2-(5-isoquinolin-4-yl-1H-indazol-3-yl)-1H-benzoimidazol-4-ylmethyl]-amine], the 50% inhibitory concentration (IC50) with HCT 116 cell line (setting [1]) turned out to be 0.024 µM. In addition, in the assay with HCT 116 cell line (setting [2]), the IC90 worked out at 0.06 µM. The inhibition at 1 µM at VEGF-R2 is 15%.
Consider `CCNCc1cccc2[nH]c(-c3n[nH]c4ccc(-c5cncc6ccccc56)cc34)nc12` [Example 37, Ethyl-[2-(5-isoquinolin-4-yl-1H-indazol-3-yl)-1H-benzoimidazol-4-ylmethyl]-amine], for which the IC50 in the assay on HCT 116 cell line (setting [3]) was 0.041 µM. Further, in the assay on HCT 116 cell line (setting [4]), the IC90 is 0.12 µM. In addition, the inhibition at 1 µM at VEGF-R2 amounted to 17%.
As for `CC(C)NCc1cccc2[nH]c(-c3n[nH]c4ccc(-c5cncc6ccccc56)cc34)nc12` [Example 38, Isopropyl-[2-(5-isoquinolin-4-yl-1H-indazol-3-yl)-1H-benzoimidazol-4-ylmethyl]-amine], in the assay on HCT 116 cell line (setting [3]), the IC50 turned out to be 0.029 µM. The IC90 with HCT 116 cell line (setting [4]) came out at 0.06 µM. The inhibition at 1 µM at VEGF-R2 was 9%.
Turning to `CCc1cncc(-c2ccc3[nH]nc(/C=C/c4ccccc4)c3c2)c1Cl` [Example 46, 5-(4-Chloro-5-ethyl-pyridin-3-yl)-3-(E)-styryl-1H-indazole], the inhibition at 1 µM on VEGF-R2 amounted to 51%.
Take `c1ccc2[nH]c(-c3n[nH]c4ccc(-c5cccc6[nH]ccc56)cc34)nc2c1` [Example 48, 3-(1H-Benzoimidazol-2-yl)-5-(1H-indol-4-yl)-1H-indazole]: in the assay on HCT 116 cell line (setting [1]), the IC50 is 3.9 µM. The IC90 with HCT 116 cell line (setting [2]) is 5 µM.
Consider `Clc1ccncc1-c1ccc2[nH]nc(-c3nc4ccccc4[nH]3)c2c1` [Example 52, 3-(1H-Benzoimidazol-2-yl)-5-(4-chloro-pyridin-3-yl)-1H-indazole], for which the IC50 in the assay on HCT 116 cell line (setting [1]) is 0.5 µM. The IC90 in the assay with HCT 116 cell line (setting [2]) was determined as 2.2 µM. The inhibition at 1 µM at VEGF-R2 was determined as 38%.
`Cc1c(-c2ccncc2)cncc1-c1ccc2[nH]nc(-c3nc4ccccc4[nH]3)c2c1` [Example 53, 5-[3-(1H-Benzoimidazol-2-yl)-1H-indazol-5-yl]-4-methyl-[3,4′]bipyridinyl]: the IC50 in the assay on HCT 116 cell line (setting [1]) turned out to be 0.2 µM. In the assay with HCT 116 cell line (setting [2]), the IC90 stood at 0.75 µM. Besides, at VEGF-R2, the inhibition at 1 µM was 32%.
The corresponding values for `c1ccc2[nH]c(-c3n[nH]c4ccc(-c5cncc6c5CCCN6)cc34)nc2c1` [Example 54] are 0.079 µM, 0.23 µM and 46%.
Turning to `O=C(Nc1cccc2c(-c3ccc4[nH]nc(-c5nc6ccccc6[nH]5)c4c3)cncc12)c1cccnc1` [Example 55, N-{4-[3-(1H-Benzoimidazol-2-yl)-1H-indazol-5-yl]-isoquinolin-8-yl}-nicotinamide], the IC50 in the assay with HCT 116 cell line (setting [1]) worked out at 1.5 µM. In addition, the IC90 with HCT 116 cell line (setting [2]) amounted to 5 µM. Also, the inhibition at 1 µM on VEGF-R2 came out at 32%.
In the case of `Cc1c(-c2cccnc2)cncc1-c1ccc2[nH]nc(-c3nc4ccccc4[nH]3)c2c1` [Example 58], the IC50 in the assay on HCT 116 cell line (setting [1]) amounted to 0.46 µM. In addition, in the assay on HCT 116 cell line (setting [2]), the IC90 turned out to be 1.3 µM. Further, at VEGF-R2, the inhibition at 1 µM was determined as 17%.
As to `Cc1c(/C=C/CO)cncc1-c1ccc2[nH]nc(-c3nc4ccccc4[nH]3)c2c1` [Example 59, (E)-3-{5-[3-(1H-Benzoimidazol-2-yl)-1H-indazol-5-yl]-4-methyl-pyridin-3-yl}-prop-2-en-1-ol], the IC50 with HCT 116 cell line (setting [1]) is 0.2 µM. Moreover, in the assay with HCT 116 cell line (setting [2]), the IC90 was 0.48 µM. Further, the inhibition at 1 µM on VEGF-R2 turned out to be 31%.
Take `Cc1c(CCCO)cncc1-c1ccc2[nH]nc(-c3nc4ccccc4[nH]3)c2c1` [Example 60, (E)-3-{5-[3-(1H-Benzoimidazol-2-yl)-1H-indazol-5-yl]-4-methyl-pyridin-3-yl}-propan-1-ol]: the IC50 in the assay on HCT 116 cell line (setting [1]) worked out at 0.2 µM. Further, in the assay with HCT 116 cell line (setting [2]), the IC90 is 0.5 µM. Further, the inhibition at 1 µM at VEGF-R2 came out at 26%.
On to `CCc1c(-c2ccncc2)cncc1-c1ccc2[nH]nc(-c3nc4ccccc4[nH]3)c2c1` [Example 61, 5-[3-(1H-Benzoimidazol-2yl)-1H-indazol-5-yl]-4ethyl-[3,4′]bipyridinyl], for which the IC50 with HCT 116 cell line (setting [1]) came to 0.22 µM. In the assay on HCT 116 cell line (setting [2]), the IC90 was determined as 0.5 µM. Moreover, the inhibition at 1 µM at VEGF-R2 was 18%.
As for `Cc1c(-c2cccc(CO)c2)cncc1-c1ccc2[nH]nc(-c3nc4ccccc4[nH]3)c2c1` [Example 69, (3-{5-[3-(1H-Benzoimidazol-2-yl)-1H-indazol-5-yl]-4-methyl-pyridin-3-yl}-phenyl)-methanol], the half-inhibitory concentration (IC50) with HCT 116 cell line (setting [1]) was 0.69 µM. In addition, the IC90 in the assay on HCT 116 cell line (setting [2]) worked out at 2.1 µM. Also, the inhibition at 1 µM on VEGF-R2 came to 38%.
With `CS(=O)(=O)Nc1ccc2nc(-c3n[nH]c4ccc(-c5cncc6ccccc56)cc34)[nH]c2c1` [Example 70, N-[2-(5-Isoquinolin-4-yl-1H-indazol-3-yl)-3H-benzoimidazol-5-yl]-methanesulfonamide], in the assay on HCT 116 cell line (setting [1]), the IC50 came to 0.18 µM. Moreover, in the assay with HCT 116 cell line (setting [2]), the IC90 is 0.44 µM. Besides, the inhibition at 1 µM at VEGF-R2 is 45%.
Regarding `Cc1c(-c2ccncc2)cncc1-c1ccc2[nH]nc(-c3nc4ccc(NS(C)(=O)=O)cc4[nH]3)c2c1` [Example 71, N-{2-[5-(4-methyl-[3,4′]bipyridinyl-5-yl)-1H-indazol-3-yl)-3H-benzoimidazol-5-yl]-methanesulfonamide], in the assay on HCT 116 cell line (setting [1]), the IC50 stood at 0.7 µM. In addition, the IC90 in the assay on HCT 116 cell line (setting [2]) turned out to be 2 µM. The inhibition at 1 µM on VEGF-R2 amounted to 42%.
With `Cc1c(CO)cncc1-c1ccc2[nH]nc(-c3nc4ccccc4[nH]3)c2c1` [Example 72, {5-[3-(1H-Benzoimidazol-2-yl)-1H-indazol-5-yl]-4-methyl-pyridin-3-yl}-methanol], in the assay with HCT 116 cell line (setting [1]), the IC50 was found to be 0.15 µM. Also, the IC90 in the assay with HCT 116 cell line (setting [2]) amounted to 0.53 µM. Further, the inhibition at 1 µM at VEGF-R2 was 24%.
The corresponding values for `Cc1c(CN(C)C)cncc1-c1ccc2[nH]nc(-c3nc4ccccc4[nH]3)c2c1` [Example 73, {5-[3-(1H-Benzoimidazol-2-yl)-1H-indazol-5-yl]-4-methyl-pyridin-3-ylmethyl}-dimethyl-amine] are 0.2 µM, 0.6 µM and 15%.
For the molecule `CCNCc1cncc(-c2ccc3[nH]nc(-c4nc5ccccc5[nH]4)c3c2)c1C` [Example 74, {5-[3-(1H-Benzoimidazol-2-yl)-1H-indazol-5-yl]-4-methyl-pyridin-3-ylmethyl}-ethyl-amine], the inhibition at 1 µM at VEGF-R2 was determined as 14%.

For the origin of these results see patent US7232912B2, “Indazole compounds, pharmaceutical compositions, and methods for mediating or inhibiting cell proliferation” (Agouron Pharmaceuticals, Inc., priority 2000, dated 2007).
